# Test results taken from US20070155764A1, “NOVEL SUBSTITUTED PYRIMIDINYLOXY UREAS USEFUL AS INHIBITORS OF PROTEIN KINASES” (KALYPSYS, INC., priority 2005, published 2007).
# Legend:
# Type in all cases: biochemical
# [1] = biological target: T1, human B-Raf protein kinase (Homo sapiens, UniProt P15056); experiment: In vitro B-Raf/Mek1 composite kinase assay; details: recombinant GST-tagged human B-Raf (Δ1-415) with inactive Mek1, 2 μM ATP
# T1 construct: GST (N); purchased Upstate Inc. 14-530 (B-Raf); 14-420 (Mek1)
# Procedure: In Vitro B-Raf/Mek1 Composite Kinase Assay
# 2.5 μl of B-Raf kinase buffer (20 mM MOPS [pH 7.2], 25 mM sodium glycerophosphate, 2 mM EGTA [pH 8.0], 1 mM sodium orthovanadate, 1 mM dithiothreitol, 10 mM MgCl2, 0.03% Brij-35, 0.3 mg/ml bovine serum albumin) containing 1 ng of recombinant, N-terminal GST-tagged human B-Raf protein kinase (Δ1-415, Upstate Inc., cat. #14-530) is dispensed to wells of a 1536 multi-well white solid plate. 60 nl of 100× concentration of test compound in DMSO is dispensed to the well by passive pin transfer and incubated for 15 minutes at room temperature (approx. 22° C.). […] The assay plates are sealed and maintained in a humidified environment. After 2 hours, 2.5 μl of PKLight protein kinase assay reagent (Cambrex, cat. #LT07-501) is dispensed. After an additional 5 minute incubation at room temperature, luminescence activity is measured on a Molecular Devices Analyst multi-mode plate reader or other suitable plate reader. Kinase inhibition results in less ATP depletion, and therefore increased luminescence signal. Negative control activity is measured with DMSO lacking any test compound. The positive control is [N-(3-trifluoromethyl-4-chlorophenyl)-N′-(4-(2-methylcarbamoyl-pyridin-4-yl)oxyphenyl)urea], aka Bay 43-9006. Efficacy is measured as a percentage of positive control activity.
# VEGFR2 kinase = biological target: T2, VEGFR2 kinase (Homo sapiens, UniProt P35968); experiment: In vitro VEGFR2 kinase assay; details: ADP Quest assay, poly Glu:Tyr substrate, 60 μM ATP
# T2 construct: purchased Invitrogen Inc PV3660
# Procedure: (§1) In vitro vegfr2 and PDGFRβ Kinase Assays
# (§2) 2.5 μl of ADP Quest assay buffer (DiscoverX Inc., cat. #90-0071) containing 20 ng VEGFR2 kinase (Invitrogen Inc, cat. #PV3660) or 25 ng PDGFRβ kinase (Invitrogen Inc., cat. #P3082) is dispensed to wells of a 1536 multi-well, black solid plate. 60 nl of 100× concentration of test compound in DMSO is dispensed to the well by passive pin transfer and incubated for 10 minutes at room temperature (approx. 22° C.). 2.5 μl of ADP Quest assay buffer containing 0.25 μg of poly Glu:Tyr (4:1) substrate peptide (Upstate Inc., cat. #12-440) and 60 μM ATP is then dispensed and the kinase reaction allowed to incubate at 30° C. for 2 hours. The assay plates are sealed and maintained in a humidified environment. After the 2 hour incubation, 2 μl of ADP Quest assay reagent A, followed by 2 μl of assay reagent B, is added. After an additional 30 minute incubation at room temperature, fluorescence intensity is measured on a Molecular Devices Aquest multi-mode plate reader or other suitable plate reader (fluorescence excitation filter: 530/25 [Peak (nm)/FWHM passband (nm)]; dichroic beamsplitter: 561 nm longpass; fluorescence emission filter: 580/10 [Peak (nm)/FWHM passband (nm)]. The assay measures the conversion of a non-fluoresecent molecule to fluorescent resorutin, which correlates with kinase activity. Negative control activity is measured with DMSO lacking any test compound. The positive control is [N-(3-trifluoromethyl-4-chlorophenyl)-N′-(4-(2-methylcarbamoyl-pyridin-4-yl)oxyphenyl)urea], aka Bay 43-9006. Efficacy is measured as a percentage of positive control activity.
# PDGFRβ kinase = biological target: T3, PDGFRβ kinase (Homo sapiens, UniProt P09619); experiment: In vitro PDGFRβ kinase assay; details: ADP Quest assay, poly Glu:Tyr substrate, 60 μM ATP
# T3 construct: purchased Invitrogen Inc. P3082
# Procedure: as §1, §2
# T2 sequence (P35968 20-1356): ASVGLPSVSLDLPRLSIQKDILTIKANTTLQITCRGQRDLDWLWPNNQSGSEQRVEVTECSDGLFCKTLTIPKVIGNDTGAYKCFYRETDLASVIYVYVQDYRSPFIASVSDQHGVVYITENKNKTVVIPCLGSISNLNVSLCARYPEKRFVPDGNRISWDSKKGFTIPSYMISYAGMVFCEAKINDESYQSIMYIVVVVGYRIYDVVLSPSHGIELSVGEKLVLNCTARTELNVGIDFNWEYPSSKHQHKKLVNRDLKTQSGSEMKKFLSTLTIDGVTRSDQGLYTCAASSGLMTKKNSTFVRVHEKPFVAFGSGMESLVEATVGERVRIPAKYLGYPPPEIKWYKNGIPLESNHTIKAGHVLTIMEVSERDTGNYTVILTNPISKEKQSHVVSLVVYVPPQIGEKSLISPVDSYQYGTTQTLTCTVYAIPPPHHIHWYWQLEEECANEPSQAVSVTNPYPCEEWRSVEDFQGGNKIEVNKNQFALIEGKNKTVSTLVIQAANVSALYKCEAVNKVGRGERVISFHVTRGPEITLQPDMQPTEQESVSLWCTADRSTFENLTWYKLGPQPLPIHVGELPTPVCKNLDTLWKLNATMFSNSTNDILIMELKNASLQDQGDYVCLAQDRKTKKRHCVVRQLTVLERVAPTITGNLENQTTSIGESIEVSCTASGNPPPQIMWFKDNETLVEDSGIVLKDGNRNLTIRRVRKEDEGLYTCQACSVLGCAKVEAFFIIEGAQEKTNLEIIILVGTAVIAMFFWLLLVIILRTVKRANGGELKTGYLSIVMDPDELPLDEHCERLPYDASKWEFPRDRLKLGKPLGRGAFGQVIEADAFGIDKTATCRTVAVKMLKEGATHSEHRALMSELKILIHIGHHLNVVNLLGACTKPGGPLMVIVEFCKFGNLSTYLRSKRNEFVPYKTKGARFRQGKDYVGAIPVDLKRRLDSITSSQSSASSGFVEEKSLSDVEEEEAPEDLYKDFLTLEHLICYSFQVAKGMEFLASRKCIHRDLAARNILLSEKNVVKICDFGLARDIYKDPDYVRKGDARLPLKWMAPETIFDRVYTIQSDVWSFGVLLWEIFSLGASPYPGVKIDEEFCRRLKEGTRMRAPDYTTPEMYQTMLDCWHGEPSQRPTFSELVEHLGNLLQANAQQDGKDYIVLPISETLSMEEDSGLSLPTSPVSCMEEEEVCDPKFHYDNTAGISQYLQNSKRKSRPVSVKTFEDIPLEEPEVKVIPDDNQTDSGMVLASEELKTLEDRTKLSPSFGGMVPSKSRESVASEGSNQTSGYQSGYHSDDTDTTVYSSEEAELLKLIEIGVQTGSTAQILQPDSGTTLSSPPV
# T3 sequence (P09619 33-1106): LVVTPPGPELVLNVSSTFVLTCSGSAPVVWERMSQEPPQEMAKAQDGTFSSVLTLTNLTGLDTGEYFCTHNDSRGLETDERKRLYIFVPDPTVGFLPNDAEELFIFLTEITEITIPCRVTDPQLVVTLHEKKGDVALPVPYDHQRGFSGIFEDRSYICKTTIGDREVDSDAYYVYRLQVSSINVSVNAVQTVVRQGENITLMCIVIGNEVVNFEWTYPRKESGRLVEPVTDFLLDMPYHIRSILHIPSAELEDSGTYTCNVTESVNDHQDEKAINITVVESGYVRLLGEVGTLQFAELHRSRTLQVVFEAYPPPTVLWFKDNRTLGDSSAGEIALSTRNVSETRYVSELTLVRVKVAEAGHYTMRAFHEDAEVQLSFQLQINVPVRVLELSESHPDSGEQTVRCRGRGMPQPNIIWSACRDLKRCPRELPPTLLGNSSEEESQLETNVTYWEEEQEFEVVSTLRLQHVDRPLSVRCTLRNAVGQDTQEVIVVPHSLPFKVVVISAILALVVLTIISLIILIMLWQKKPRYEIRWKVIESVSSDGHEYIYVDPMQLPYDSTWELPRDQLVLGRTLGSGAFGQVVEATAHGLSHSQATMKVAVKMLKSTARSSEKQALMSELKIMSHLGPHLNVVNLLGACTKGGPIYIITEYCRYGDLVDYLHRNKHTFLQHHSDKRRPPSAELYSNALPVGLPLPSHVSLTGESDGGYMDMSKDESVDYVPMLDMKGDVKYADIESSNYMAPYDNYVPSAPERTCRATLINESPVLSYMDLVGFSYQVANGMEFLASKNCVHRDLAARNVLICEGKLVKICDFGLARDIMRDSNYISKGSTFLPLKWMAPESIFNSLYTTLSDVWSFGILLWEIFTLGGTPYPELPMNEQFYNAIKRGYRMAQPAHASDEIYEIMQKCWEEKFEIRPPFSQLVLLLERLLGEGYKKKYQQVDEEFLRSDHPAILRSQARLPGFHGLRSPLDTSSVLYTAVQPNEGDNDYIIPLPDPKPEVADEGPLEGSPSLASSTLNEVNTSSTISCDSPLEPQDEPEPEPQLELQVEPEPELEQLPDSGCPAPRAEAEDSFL
# T1 sequence (P15056 416-766): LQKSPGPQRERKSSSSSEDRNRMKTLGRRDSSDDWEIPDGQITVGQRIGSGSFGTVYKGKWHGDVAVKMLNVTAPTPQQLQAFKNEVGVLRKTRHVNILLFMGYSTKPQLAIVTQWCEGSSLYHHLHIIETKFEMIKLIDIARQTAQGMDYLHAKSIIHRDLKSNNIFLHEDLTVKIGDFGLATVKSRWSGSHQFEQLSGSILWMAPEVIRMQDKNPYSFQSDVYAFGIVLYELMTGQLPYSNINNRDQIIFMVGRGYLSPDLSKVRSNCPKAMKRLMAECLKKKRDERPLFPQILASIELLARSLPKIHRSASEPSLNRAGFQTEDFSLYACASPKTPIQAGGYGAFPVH
IC50 [1] [µM],IC50 (VEGFR2 kinase) [µM],IC50 (PDGFRβ kinase) [µM],Compound
≤ 10,≤ 10,≤ 10,"CN1CCN(Cc2cc(NC(=O)Nc3cccc(Oc4cc(-c5nnco5)ncn4)c3)cc(C(F)(F)F)c2)CC1 [Example 24, 1-(3-(6-(1,3,4-Oxadiazol-2-yl)pyrimidin-4-yloxy)phenyl)-3-(3-((4-methylpiperazin-1-yl)methyl)-5-(trifluoromethyl)phenyl)urea]"
≤ 10,≤ 10,≤ 10,"CCN(CC)Cc1cc(NC(=O)Nc2cccc(Oc3cc(-c4nnco4)ncn3)c2)cc(C(F)(F)F)c1 [Example 25, 1-(3-(6-(1,3,4-Oxadiazol-2-yl)pyrimidin-4-yloxy)phenyl)-3-(3-((diethylamino)methyl)-5-(trifluoromethyl)phenyl)urea]"
≤ 10,≤ 10,≤ 10,"O=C(Nc1ccc(Oc2cc(-c3nnco3)ncn2)cc1)Nc1cc(C(F)(F)F)c(Cl)cc1OCCN1CCCC1 [Example 31, 1-(4-(6-(1,3,4-Oxadiazol-2-yl)pyrimidin-4-yloxy)phenyl)-3-(4-chloro-2-(2-(pyrrolidin-1-yl)ethoxy)-5-(trifluoromethyl)phenyl)urea]"
≤ 10,> 10,≤ 10,"CN1CCN(Cc2cc(NC(=O)Nc3cccc(Oc4cc(-c5ncco5)ncn4)c3)cc(C(F)(F)F)c2)CC1 [Example 36, 1-(3-((4-Methylpiperazin-1-yl)methyl)-5-(trifluoromethyl)phenyl)-3-(3-(6-(oxazol-2-yl)pyrimidin-4-yloxy)phenyl)urea]"
≤ 10,≤ 10,≤ 10,"CN1CCN(Cc2cc(NC(=O)Nc3ccc(Oc4ccnc(-c5nnco5)c4)cc3)cc(C(F)(F)F)c2)CC1 [Example 39, 1-(4-(2-(1,3,4-Oxadiazol-2-yl)pyridin-4-yloxy)phenyl)-3-(3-((4-methylpiperazin-1-yl)methyl)-5-(trifluoromethyl)phenyl)urea]"
≤ 10,≤ 10,≤ 10,"O=C(Nc1cccc(Oc2cc(-c3ccn[nH]3)ncn2)c1)Nc1ccc(Cl)c(C(F)(F)F)c1 [Example 40, 1-(3-(6-(1H-Pyrazol-5-yl)pyrimidin-4-yloxy)phenyl)-3-(4-chloro-3-(trifluoromethyl)phenyl)urea]"
≤ 10,≤ 10,≤ 10,"O=C(Nc1cccc(Oc2cc(-c3ccno3)ncn2)c1)Nc1ccc(Cl)c(C(F)(F)F)c1 [Example 42, 1-(4-chloro-3-(trifluoromethyl)phenyl)-3-(3-(6-(isoxazol-5-yl)pyrimidin-4-yloxy)phenyl)urea]"
≤ 10,≤ 10,≤ 10,"O=C(Nc1ccc(Cl)c(C(F)(F)F)c1)Nc1cc(Oc2cc(-c3nnco3)ncn2)c(F)cc1F [Example 45, 1-(5-(6-(1,3,4-Oxadiazol-2-yl)pyrimidin-4-yloxy)-2,4-difluorophenyl)-3-(4-chloro-3-(trifluoromethyl)phenyl)urea]"

# The next lines start with the compound.
Compound,IC50 [1] [µM],IC50 (VEGFR2 kinase) [µM],IC50 (PDGFRβ kinase) [µM]
"O=C(Nc1cccc(Oc2cc(-c3nnco3)ncn2)c1)Nc1cc(C(F)(F)F)c(Cl)cc1OCCN1CCCC1 [Example 26, 1-(3-(6-(1,3,4-Oxadiazol-2-yl)pyrimidin-4-yloxy)phenyl)-3-(4-chloro-2-(2-(pyrrolidin-1-yl)ethoxy)-5-(trifluoromethyl)phenyl)urea]",≤ 10,≤ 10,≤ 10
"O=C(Nc1cccc(Oc2cc(-c3ccc[nH]3)ncn2)c1)Nc1ccc(Cl)c(C(F)(F)F)c1 [Example 27, 1-(3-(6-(1H-Pyrrol-2-yl)pyrimidin-4-yloxy)phenyl)-3-(4-chloro-3-(trifluoromethyl)phenyl)urea]",≤ 10,≤ 10,≤ 10
"O=C(Nc1ccc(Oc2cc(-c3ccc[nH]3)ncn2)cc1)Nc1ccc(Cl)c(C(F)(F)F)c1 [Example 28, 1-(4-(6-(1H-Pyrrol-2-yl)pyrimidin-4-yloxy)phenyl)-3-(4-chloro-3-(trifluoromethyl)phenyl)urea]",≤ 10,≤ 10,≤ 10
"Cc1nc(C)c(-c2cc(Oc3cccc(NC(=O)Nc4ccc(Cl)c(C(F)(F)F)c4)c3)ncn2)s1 [Example 29, 1-(4-Chloro-3-(trifluoromethyl)phenyl)-3-(3-(6-(2,4-dimethylthiazol-5-yl)pyrimidin-4-yloxy)phenyl)urea]",≤ 10,≤ 10,≤ 10
"Cc1nc(C)c(-c2cc(Oc3ccc(NC(=O)Nc4ccc(Cl)c(C(F)(F)F)c4)cc3)ncn2)s1 [Example 30, 1-(4-Chloro-3-(trifluoromethyl)phenyl)-3-(4-(6-(2,4-dimethylthiazol-5-yl)pyrimidin-4-yloxy)phenyl)urea]",> 10,≤ 10,≤ 10
"CCN(CC)CCNC(=O)c1cc(NC(=O)Nc2cccc(Oc3cc(-c4nnco4)ncn3)c2)cc(C(F)(F)F)c1 [Example 32, 3-(3-(3-(6-(1,3,4-Oxadiazol-2-yl)pyrimidin-4-yloxy)phenyl)ureido)-N-(2-(diethylamino)ethyl)-5-(trifluoromethyl)benzamide]",≤ 10,≤ 10,≤ 10
"O=C(Nc1cccc(Oc2cc(-c3nnco3)ncn2)c1)Nc1cc(CN2CCOCC2)cc(C(F)(F)F)c1 [Example 33, 1-(3-(6-(1,3,4-Oxadiazol-2-yl)pyrimidin-4-yloxy)phenyl)-3-(3-(morpholinomethyl)-5-(trifluoromethyl)phenyl)urea]",≤ 10,≤ 10,≤ 10
"Cn1cc(-c2cc(Oc3ccc(NC(=O)Nc4ccc(Cl)c(C(F)(F)F)c4)cc3)ncn2)cn1 [Example 35, 1-(4-Chloro-3-(trifluoromethyl)phenyl)-3-(4-(6-(1-methyl-1H-pyrazol-4-yl)pyrimidin-4-yloxy)phenyl)urea]",≤ 10,≤ 10,≤ 10
"O=C(Nc1cccc(Oc2ccnc(-c3nnco3)c2)c1)Nc1cc(C(F)(F)F)c(Cl)cc1OCCN1CCCC1 [Example 37, 1-(3-(2-(1,3,4-Oxadiazol-2-yl)pyridin-4-yloxy)phenyl)-3-(4-chloro-2-(2-(pyrrolidin-1-yl)ethoxy)-5-(trifluoromethyl)phenyl)urea]",≤ 10,≤ 10,≤ 10
"CN1CCN(Cc2cc(NC(=O)Nc3cccc(Oc4ccnc(-c5nnco5)c4)c3)cc(C(F)(F)F)c2)CC1 [Example 38, 1-(3-(2-(1,3,4-Oxadiazol-2-yl)pyridin-4-yloxy)phenyl)-3-(3-((4-methylpiperazin-1-yl)methyl)-5-(trifluoromethyl)phenyl)urea]",≤ 10,≤ 10,≤ 10
"O=C(Nc1ccc(Oc2ccnc(-c3nnco3)c2)cc1)Nc1cc(C(F)(F)F)c(Cl)cc1OCCN1CCCC1 [Example 41, 1-(4-(2-(1,3,4-Oxadiazol-2-yl)pyridin-4-yloxy)phenyl)-3-(4-chloro-2-(2-(pyrrolidin-1-yl)ethoxy)-5-(trifluoromethyl)phenyl)urea]",≤ 10,≤ 10,≤ 10
"O=C(Nc1ccc(Oc2ccnc(-c3nnco3)c2)cc1)Nc1cc(CN2CCOCC2)cc(C(F)(F)F)c1 [Example 43, 1-(4-(2-(1,3,4-Oxadiazol-2-yl)pyridin-4-yloxy)phenyl)-3-(3-(morpholinomethyl)-5-(trifluoromethyl)phenyl)urea]",≤ 10,≤ 10,≤ 10
CN1CCC(Oc2cc(Cl)c(C(F)(F)F)cc2NC(=O)Nc2ccc(Oc3ccnc(-c4nnco4)c3)cc2)CC1 [Example 44],≤ 10,≤ 10,≤ 10
